From patent US8524685B1, “Anti-angiogenic therapeutics efficacy enhanced by nanoformulation” (University of Puerto Rico, priority 2010, dated 2013)

Legend:
[1] = test system: capillary endothelial cells; settings: in vitro, capillary endothelial cells plated on fibronectin-coated dishes; cited from earlier work
[2] = test system: capillary endothelial cells; experiment: MTT assay, capillary endothelial cell viability; type: cell-based, bovine; settings: 1 μg/ml, 3 h at 37° C., FIG. 1
Experimental: (§1) The capillary endothelial cells were from the laboratory stock of a non-transformed endothelial cell line from bovine adrenal medulla and maintained as previously described. Synchronized cultures (33) were treated with Tunicamycin nanoparticles (1 μg/ml) for 1 h in EMEM containing 2% fetal bovine serum (heat inactivated).
Synchronized capillary endothelial cells were incubated with Tunicamycin (1 μg/ml) alone or with 1 μg/ml of Tunicamycin nanoparticles for 3 h at 37° C. in a CO2 incubator (5% CO2 and 95% air) in 96-well microtiter plates. At the end the plates were processed for the MTT Assay. The results shown in FIG. 1 indicate that the cell viability was reduced to almost 50% (p<0.001) when treated with Tunicamycin conjugated to 20 nm or 50 nm gold particles.

cyclin D1 = experiment: Western blot of cyclin D1 expression in capillary endothelial cells; type: cell-based, bovine; settings: 1 μg/ml, FIG. 2
Experimental: as §1
(§2) Performed as before with 7.5% gel concentration.
(§3) To evaluate the biochemical pathway the Tunicamycin nanoparticles are likely to interfere, their effect on the cell cycle progression has been analyzed. The cell cycle antigens have been analyzed focusing primarily on the D-type cycline and their partners because Tunicamycin causes cell cycle arrest in G1. […] Expression of cyclin D1 and its catalytic partner, i.e., CDK4 was analyzed by western blotting. […] There was a little difference with the CDK4 expression. It was higher in cells treated with 20 nm gold particles […], but they both were much reduced compared to the untreated control or cells treated with native Tunicamycin as shown in FIG. 2. p53 is a gate keeper for the cell cycle. Upon phosphorylation p53 migrates to the nucleus and activates gene transcription.

CDK4 = experiment: Western blot of CDK4 expression in capillary endothelial cells; type: cell-based, bovine; settings: 1 μg/ml, FIG. 2, for the conjugates also compared to native Tunicamycin
Experimental: as §1, §2, §3

p53p^ser392 = experiment: Western blot of p53 phosphorylated in serine392; type: cell-based, bovine; settings: FIG. 3
Experimental: as §1, §2, §3

IRE-1 = experiment: Unfolded protein response, western blot of IRE-1; type: cell-based, bovine; settings: FIG. 5
Experimental: as §1, §2
(§4) It has been observed recently that Tunicamycin inhibits angiogenesis in vitro and in vivo as well as during the breast tumor progression by ER stress-mediated induction of unfolded protein response. In addition, it has also been shown that Tunicamycin gold nanoparticles inhibit capillary endothelial cell cycle progression much more effectively than native Tunicamycin. It was also evaluated if Tunicamycin gold nanoparticles would also activate the pathway that induces the unfolded protein response. The results shown in FIG. 5 indicate that Tunicamycin gold nanoparticles affect both transcription and translation.

PERK = experiment: Unfolded protein response, western blot of PERK; type: cell-based, bovine; settings: FIG. 5
Experimental: as §1, §2, §4

phosphoPERK = experiment: Unfolded protein response, western blot of phosphoPERK; type: cell-based, bovine; settings: FIG. 5
Experimental: as §1, §2, §4

GRP-78/Bip = settings: shown earlier; cited from earlier work
angiogenesis = settings: in vitro/in vivo; cited from earlier work
breast tumor = settings: athymic nude mice; cited from earlier work

| Compound | formation of capillary tubes [1] | effect on capillary endothelial cell viability compared to the control [2] | expression of cyclin D1 compared to the untreated control (cyclin D1) | expression of CDK4 compared to the untreated control (CDK4) | expression of p53 phosphorylated in serine392 (p53p^ser392) (p53p^ser392) | IRE-1 (transcriptional attenuator) activation (IRE-1) | PERK activation (PERK) | phosphoPERK (translational attenuator) activation (phosphoPERK) | time of treatment at which ER stress is induced (GRP-78/Bip) [h] | angiogenesis (angiogenesis) | breast tumor growth (breast tumor) |
| --- | --- | --- | --- | --- | --- | --- | --- | --- | --- | --- | --- |
| OC[C@H]1NC[C@@H](O)[C@@H](O)[C@@H]1O [deoxymannojirimycin] | inhibited the formation of capillary tubes |  |  |  |  |  |  |  |  |  |  |
| O[C@H]1[C@H]2[C@H](O)CCCN2C[C@H]1O [swainsonine] | did not inhibit tube formation |  |  |  |  |  |  |  |  |  |  |
| Tunicamycin |  | does not show any effect | enhanced | enhanced | no effect | either had no effect or the effect is drastically reduced | either had no effect or the effect is drastically reduced | either had no effect or the effect is drastically reduced | 3 | inhibit angiogenesis | reduce the breast tumor growth |
